Where two headings read alike, the source gives them in different places.
Experiments:
P-glycoprotein (MDR1) = experiment: Two-way permeability evaluation in MDR1-MDCK cells; format: in vitro ADME; conditions: dog, MDCK-MDR1, pH 7.4, MDR1-MDCK
From the text: (§1) Experiment purpose: To determine the permeability of the test compounds in MDR1-MDCK cells
(§2) Experiment operation: MDR1-MDCK cells that permanently express human P-glycoprotein were inoculated on a 96-well Insert cell plate, and cultured for 4-7 days to form confluent monolayer cells. […] In addition, the cells were lysed with the cold acetonitrile solution containing the internal standard to measure the accumulation amount of intracellular compounds. The LC/MS/MS method was used to analyze the concentrations of the compounds to be tested in all samples (including an initial dosing solution, supernatant of the donor wells, receiver solution, and cell lysate). The concentrations of the test compounds were expressed by the ratio of the peak area thereof to the peak area of the internal standard to detect the permeability of the compounds from directions of A→B and B→A.

[1] = system: P-glycoprotein (MDR1), human; experiment: Two-way permeability evaluation in MDR1-MDCK cells; format: in vitro ADME; conditions: dog, MDR1-MDCK
From the text: as §1, §2

MV4-11 tumor cells = experiment: Efficacy in mice with subcutaneously transplanted MV4-11 acute myeloid leukemia tumor; format: in vivo; conditions: 6 mg/kg oral once a day
Description: 0.2 mL (10×10^6 cells, containing 50% Matrigel) of MV4-11 tumor cells were inoculated subcutaneously on the right back of each mouse to form a transplanted tumor; when the volume reached 100-200 mm^3, the animals were randomly grouped according to the tumor volume, with 8 in the negative control group, 8 in the positive control group, and 8 in the experimental group. […] The length (A) and width (B) of the tumor were measured with a vernier caliper twice a week, thereby calculating the tumor volume V=A×B^2/2. The calculation of relative tumor volume (RTV) follows: RTV=Vt/V0, where Vt is the tumor volume at the end of the administration, and V0 is the tumor volume measured before division into different cages for administration. The pharmacodynamic evaluation index of the anti-tumor activity is the relative tumor proliferation ratio T/C (%), and the calculation formula is: T/C (%)=TRTV/CRTV×100%. Where TRTV is the RTV of the treatment group; CRTV is the RTV of the negative control group. Efficacy evaluation criteria: T/C %>60% is invalid; T/C %≤60% and P<0.05 upon statistical treatment is valid.
CVt is the tumor volume of the control group at the end of the administration; CV0 is the tumor volume of the control group before division into different cages for administration; TVt is the tumor volume of the dosing group at the end of the administration; TV0 is the tumor volume of the dosing group before division into different cages for administration. The difference in tumor volumes between the dosing group and the control group was subjected to t-test. At the same time, the nude mice of each group were weighed twice a week to preliminarily evaluate the side effects of the drugs.

[2] = Pharmacokinetic study in mice, tail vein injection and oral cassette dosing; format: in vivo; conditions: mouse, plasma, female Balb/c mice
Description: The purposes of the present disclosure are to study the pharmacokinetic behaviors of the compounds of the present disclosure in mice and to evaluate the pharmacokinetic characteristics thereof.
Healthy juvenile female Balb/c mice by weight of 20-30 g, 6 in total.
There were 6 female Balb/c mice, with after fasting overnight 3 mice administered a dose of 0.5 mg/kg via tail vein injection; the other 3 mice administered orally a dose of 2 mg/kg.
Blood was collected before administration and 0.08, 0.25, 0.5, 1, 2, 4, 8, and 24 hours after administration, placed in a heparinized anticoagulation tube, and centrifuged at 7000 rpm (5204 g) at 4° C., and the plasma was separated and stored at −80° C. 4 hours after administration, the mice were fed.
The LC/MS/MS method was used to determine the content of the compounds to be tested in mouse plasma after iv and oral administration. Plasma samples were analyzed after pretreatment of protein precipitation.

[3] = reported data; cited from earlier work
[4] = Two-way permeability evaluation in Caco-2 cells; format: in vitro ADME; conditions: human; for recovery at 2.5 h, 2 μM: Caco-2, pH 7.4, Caco-2
Description: Experiment purpose: To determine the permeability of the test compounds in Caco-2 cells
Experiment operation: Human colon cancer Caco-2 cells were inoculated on a 96-well Insert cell plate at a density of 1×10^5 cells/cm^2, and cultured for 4-5 days to form confluent monolayer cells. The test compounds was diluted with an HBSS buffer (pH 7.4) to a concentration of 2 μM, added to the top or basolateral side of the cells, and incubated at 37° C., 5% CO2 and saturated humidity for 2.5 hours, and then the sample solutions in the donor wells and receiver wells were taken and immediately mixed with a cold acetonitrile solution containing an internal standard. In addition, the cells were lysed with the cold acetonitrile solution containing the internal standard to measure the accumulation amount of intracellular compounds. The LC/MS/MS method was used to analyze the concentrations of the compounds to be tested in all samples (including an initial dosing solution, supernatant of the donor wells, receiver solution, and cell lysate). The concentrations of the test compounds were expressed by the ratio of the peak area thereof to the peak area of the internal standard to detect the permeability of the compounds from directions of A→B and B→A.

[5] = reported data; cited from earlier work; remark: listed apart in the source
[6] = read-out: Average recovery rate A→B
[7] = read-out: Average recovery rate B→A
[8] = Caco-2, 2 μM, pH 7.4, 2.5 hours

Structure (SMILES): COc1ncc(-c2nc3c(n2C(C)C)[C@H](c2ccc(Cl)cc2)N(c2cc(Cl)cn(C)c2=O)C3=O)c(OC)n1 [NVP-HDM201]
- recovery at 2.5 h, 2 μM (P-glycoprotein (MDR1); [6]): 38%
- recovery at 2.5 h, 2 μM (P-glycoprotein (MDR1); [7]): 50%
- efflux ratio at 2.5 h, 2 μM ([1]; pH 7.4): 20.3
- Papp A→B at 2.5 h, 2 μM ([1]; 2 μM, pH 7.4, 2.5 hours): 0.91 ×10⁻⁶ cm/s
- Papp B→A at 2.5 h, 2 μM ([1]; 2 μM, pH 7.4, 2.5 hours): 18.4 ×10⁻⁶ cm/s
- RTV (21 days) (MV4-11 tumor cells): 4.68 ± 0.69
- T/C (MV4-11 tumor cells; 21 days): 73.58%
- TGI (MV4-11 tumor cells; 21 days): 36.91%
- Tumor volume (Day 0) (MV4-11 tumor cells; Day 0, before administration): 153 ± 20 mm^3
- Tumor volume (Day 21) (MV4-11 tumor cells; Day 21): 695 ± 115 mm^3
- half-life ([2]; 0.5 mg/kg, intravenous injection 0.5 mpk, read-out: Half-life T1/2 (converted)): 42.6 min
- bioavailability ([2]; 2 mg/kg, iv 0.5 mpk, oral 2 mpk, read-out: Oral bioavailability F): 39.6%
- AUC(0-t) ([2]; 2 mg/kg, oral administration 2 mpk, read-out: Oral exposure AUC0-t): 1.32 µM·h
- drug plasma exposure [3]: low
- half-life in mice [3]: short
- efflux ratio at 2.5 h, 2 μM ([4]; Caco-2, pH 7.4): 198
- recovery at 2.5 h, 2 μM [4, 6]: 94.3%
- recovery at 2.5 h, 2 μM [4, 7]: 88.3%
- Papp A→B at 2.5 h, 2 μM [4, 8]: 0.17 ×10⁻⁶ cm/s
- Papp B→A at 2.5 h, 2 μM [4, 8]: 34.3 ×10⁻⁶ cm/s
- stability in mouse liver microsomes [5]: poor
